Assays:
K-562 cells = assay: Cell growth inhibition assay (CellTiter-Glo), K-562; type: cell-based, human; conditions: Homo sapiens, K562, read-out: K-562 TGI
Summary of the method: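 Dose-response over 3-fold dilutions from 10 μM; 0.1% DMSO control. Endpoint: CellTiter-Glo ATP signal, background-subtracted and day 0-corrected.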

His-Brd4(44-477) = His-Brd4(44-477) (Homo sapiens (Human), UniProt O60885); assay: TR-FRET in-vitro binding assay for BRD4; conditions: biochemical
Summary of the method: (§1)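 Assay buffer HEPES pH 7.5/NaCl/Tween20/BSA; protein solution 45 nM, peptide solution 60 nM acetyl-H4 (AcK5,8,12,16). Incubated 30 °C for 35 min; Eu-anti-His6 and SA-APC detection, TR-FRET read.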

[1] = biological target: His-CREBBP (1081-1197) bromodomain (Homo sapiens (Human), UniProt Q92793); assay: AlphaScreen in-vitro binding assay for CREBBP; conditions: biochemical
Summary of the method: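 Ni-chelate acceptor and streptavidin donor beads (45 µg/mL each, in 50 mM HEPES pH 7.5, 150 mM NaCl, 0.02% BSA) were then added for 60 min at room temperature. IC50 came from 8-point non-linear regression.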

His-Brd2(60-472) = His-Brd2(60-472) (Homo sapiens (Human), UniProt P25440); assay: TR-FRET in-vitro binding assay for BRD2; conditions: biochemical
Summary of the method: as §1

His-Brd3(20-477) = His-Brd3(20-477) (Homo sapiens (Human), UniProt Q15059); assay: TR-FRET in-vitro binding assay for BRD3; conditions: biochemical
Summary of the method: as §1

Sequence of His-Brd3(20-477) (Q15059 20-477): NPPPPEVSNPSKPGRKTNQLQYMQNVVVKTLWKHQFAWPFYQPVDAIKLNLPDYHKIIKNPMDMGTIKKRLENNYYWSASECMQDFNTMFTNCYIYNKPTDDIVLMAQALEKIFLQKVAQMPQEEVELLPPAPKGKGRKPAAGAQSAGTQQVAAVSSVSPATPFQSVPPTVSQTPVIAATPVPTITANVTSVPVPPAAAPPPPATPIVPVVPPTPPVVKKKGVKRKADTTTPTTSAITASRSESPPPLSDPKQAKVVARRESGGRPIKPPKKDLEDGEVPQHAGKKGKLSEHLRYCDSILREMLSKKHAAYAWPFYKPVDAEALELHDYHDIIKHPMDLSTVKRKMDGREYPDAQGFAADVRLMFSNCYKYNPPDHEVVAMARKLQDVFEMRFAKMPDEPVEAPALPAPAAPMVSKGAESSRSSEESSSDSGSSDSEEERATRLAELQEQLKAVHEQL
Sequence of His-Brd2(60-472) (P25440 60-472): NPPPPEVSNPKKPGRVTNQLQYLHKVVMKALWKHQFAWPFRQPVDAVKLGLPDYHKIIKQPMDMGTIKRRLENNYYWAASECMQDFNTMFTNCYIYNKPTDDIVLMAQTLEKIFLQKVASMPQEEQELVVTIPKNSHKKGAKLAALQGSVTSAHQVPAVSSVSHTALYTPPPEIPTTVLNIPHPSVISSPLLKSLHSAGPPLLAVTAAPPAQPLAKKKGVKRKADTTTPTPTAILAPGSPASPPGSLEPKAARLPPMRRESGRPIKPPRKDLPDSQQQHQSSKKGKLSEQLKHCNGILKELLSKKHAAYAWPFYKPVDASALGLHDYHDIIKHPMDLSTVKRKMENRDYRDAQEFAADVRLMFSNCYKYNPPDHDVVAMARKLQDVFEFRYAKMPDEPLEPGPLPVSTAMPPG
Sequence of His-CREBBP (1081-1197) bromodomain (Q92793 1081-1197): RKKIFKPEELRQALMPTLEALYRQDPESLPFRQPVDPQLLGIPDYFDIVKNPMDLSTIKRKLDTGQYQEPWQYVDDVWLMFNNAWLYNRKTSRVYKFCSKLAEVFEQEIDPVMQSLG

IC50 (His-Brd4(44-477))	IC50 [1]	IC50 (His-Brd2(60-472))	IC50 (His-Brd3(20-477))	SMILES	IC (total growth inhibition) (K-562 cells)
210 nM	2000 nM	200 nM	200 nM	Cc1cc(N2C(=O)c3nn(C)c(O)c3C2c2ccc(Cl)cc2)cn(C)c1=O (centres unmarked) [Example 73, 4-(4-chlorophenyl)-5-(1,5-dimethyl-6-oxo-1,6-dihydropyridin-3-yl)-3-hydroxy-2-methyl-4,5-dihydropyrrolo[3,4-c]pyrazol-6(2H)-one]	> 10 µM
87 nM	11000 nM	80 nM	76 nM	CCOC(=O)N1CC(n2nc(C)c3c2C(=O)N(c2cc(C)c(=O)n(C)c2)C3c2ccc(Cl)cc2)C1 (centres unmarked) [Example 155, Ethyl 3-(4-(4-chlorophenyl)-5-(1,5-dimethyl-6-oxo-1,6-dihydropyridin-3-yl)-3-methyl-6-oxo-5,6-dihydropyrrolo[3,4-c]pyrazol-1(4H)-yl)azetidine-1-carboxylate]	> 10 µM
110 nM	4600 nM	140 nM	120 nM	Cc1cc(N2C(=O)c3nn(C(=O)N(C)C)c(C)c3[C@H]2c2ccc(Cl)cc2)cn2c(C)nnc12 [Example 150, (R)-4-(4-chlorophenyl)-5-(3,8-dimethyl-[1,2,4]triazolo[4,3-a]pyridin-6-yl)-N,N,3-trimethyl-6-oxo-5,6-dihydropyrrolo[3,4-c]pyrazole-2(4H)-carboxamide]	> 10 µM
270 nM	4100 nM	220 nM	160 nM	CCc1c2c(nn1C(=O)N(C)C)C(=O)N(c1cc(C)c(=O)n(C)c1)C2c1ccc(Cl)cc1 (centres unmarked) [Example 148, 4-(4-chlorophenyl)-5-(1,5-dimethyl-6-oxo-1,6-dihydropyridin-3-yl)-3-ethyl-N,N-dimethyl-6-oxo-5,6-dihydropyrrolo[3,4-c]pyrazole-2(4H)-carboxamide]	> 10 µM
55 nM	4300 nM	78 nM	83 nM	Cc1nn(-c2ccnn2C)c2c1[C@@H](c1ccc(Cl)cc1)N(c1cc(C)c(=O)n(C)c1)C2=O [Example 120, (R)-4-(4-chlorophenyl)-5-(1,5-dimethyl-6-oxo-1,6-dihydropyridin-3-yl)-3-methyl-1-(1-methyl-1H-pyrazol-5-yl)-4,5-dihydropyrrolo[3,4-c]pyrazol-6(1H)-one]	> 10 µM
170 nM	1500 nM	180 nM	130 nM	Cc1cc(N2C(=O)c3nn(C(=O)N(C)C)c(C)c3C2c2ccc(Cl)cc2)cn(C)c1=O (centres unmarked) [Example 141, 4-(4-chlorophenyl)-5-(1,5-dimethyl-6-oxo-1,6-dihydropyridin-3-yl)-N,N,3-trimethyl-6-oxo-5,6-dihydropyrrolo[3,4-c]pyrazole-2(4H)-carboxamide]	> 10 µM
11000 nM	> 37000 nM	5300 nM	6100 nM	Cc1nn(C(C)C)c2c1[C@H](c1ccc(Cl)cc1)N(c1cc(C)c(=O)n(C)c1)C2=O [Example 103, (S)-4-(4-chlorophenyl)-5-(1,5-dimethyl-6-oxo-1,6-dihydropyridin-3-yl)-1-isopropyl-3-methyl-4,5-dihydropyrrolo[3,4-c]pyrazol-6(1H)-one]	> 10 µM
30 nM	6900 nM	36 nM	39 nM	Cc1nn(C(=O)N(C)C)c2c1[C@@H](c1ccc(Cl)cc1)N(c1cc(C)c3nnc(C)n3c1)C2=O [Example 149, (R)-4-(4-chlorophenyl)-5-(3,8-dimethyl-[1,2,4]triazolo[4,3-a]pyridin-6-yl)-N,N,3-trimethyl-6-oxo-5,6-dihydropyrrolo[3,4-c]pyrazole-1(4H)-carboxamide]	> 10 µM

Continued, molecule first:

SMILES	IC50 (His-Brd4(44-477))	IC50 [1]	IC50 (His-Brd2(60-472))	IC50 (His-Brd3(20-477))	IC (total growth inhibition) (K-562 cells)
Cc1cc(N2C(=O)c3nn(C4CNC4)c(C)c3C2c2ccc(Cl)cc2)cn2c(C)nnc12 (centres unmarked) [Example 152, 2-(azetidin-3-yl)-4-(4-chlorophenyl)-5-(3,8-dimethyl-[1,2,4]triazolo[4,3-a]pyridin-6-yl)-3-methyl-4,5-dihydropyrrolo[3,4-c]pyrazol-6(2H)-one]	78 nM	3100 nM	100 nM	110 nM	> 10 µM
CCn1nc2c(c1C)C(c1ccc(Cl)cc1)N(c1cc(C)c3nnc(C)n3c1)C2=O (centres unmarked) [Example 115, 4-(4-chlorophenyl)-5-(3,8-dimethyl-[1,2,4]triazolo[4,3-a]pyridin-6-yl)-2-ethyl-3-methyl-4,5-dihydropyrrolo[3,4-c]pyrazol-6(2H)-one]	43 nM	1200 nM	48 nM	46 nM	> 10 µM
Cc1nn(C2CC2)c2c1C(c1ccc(Cl)cc1)N(c1ccc3nnn(C)c3n1)C2=O (centres unmarked) [Example 102, 4-(4-chlorophenyl)-1-cyclopropyl-3-methyl-5-(3-methyl-3H-[1,2,3]triazolo[4,5-b]-pyridin-5-yl)-4,5-dihydropyrrolo[3,4-c]pyrazol-6(1H)-one]	59 nM	> 37000 nM	72 nM	55 nM	> 10 µM
Cc1nn(C2CC2)c2c1C(c1ccc(Cl)cc1)N(c1cc(N(C)C(=O)OC(C)(C)C)c3nnc(C)n3n1)C2=O (centres unmarked) [Example 112, tert-butyl (6-(4-(4-chlorophenyl)-1-cyclopropyl-3-methyl-6-oxopyrrolo[3,4-c]pyrazol-5(1H,4H,6H)-yl)-3-methyl-[1,2,4]triazolo[4,3-b]pyridazin-8-yl)(methyl)carbamate]	> 37000 nM	> 37000 nM	> 37000 nM	> 37000 nM	> 10 µM
Cc1nn(C2CN(C)C2)c2c1C(c1ccc(Cl)cc1)N(c1cc(C)c3nnc(C)n3c1)C2=O (centres unmarked) [Example 157, 4-(4-chlorophenyl)-5-(3,8-dimethyl-[1,2,4]triazolo[4,3-a]pyridin-6-yl)-3-methyl-1-(1-methylazetidin-3-yl)-4,5-dihydropyrrolo[3,4-c]pyrazol-6(1H)-one]	77 nM	> 37000 nM	77 nM	200 nM	> 10 µM
Cc1cc(N2C(=O)c3c(cnn3C3CC3)C2c2ccc(Cl)cc2)cn(C)c1=O (centres unmarked) [Example 34, 4-(4-chlorophenyl)-1-cyclopropyl-5-(1,5-dimethyl-6-oxo-1,6-dihydropyridin-3-yl)-4,5-dihydropyrrolo[3,4-c]pyrazol-6(1H)-one]	110 nM	5200 nM	95 nM	110 nM	> 10 µM
CCc1nn(C2CC2)c2c1C(c1ccc(Cl)cc1)N(c1cc(OC)c3nnc(C)n3c1)C2=O (centres unmarked) [Example 84, 4-(4-chlorophenyl)-1-cyclopropyl-3-ethyl-5-(8-methoxy-3-methyl-[1,2,4]triazolo[4,3-a]pyridin-6-yl)-4,5-dihydropyrrolo[3,4-c]pyrazol-6(1H)-one]	28 nM	> 37000 nM	37 nM	61.5 nM	> 10 µM
Cc1nn(-c2ccnn2C)c2c1[C@H](c1ccc(Cl)cc1)N(c1cc(C)c3nnc(C)n3c1)C2=O [Example 124, (S)-4-(4-chlorophenyl)-5-(3,8-dimethyl-[1,2,4]triazolo[4,3-a]pyridin-6-yl)-3-methyl-1-(1-methyl-1H-pyrazol-5-yl)-4,5-dihydropyrrolo[3,4-c]pyrazol-6(1H)-one]	25000 nM	> 37000 nM	29000 nM	37000 nM	> 10 µM
COc1ncccc1-n1nc(C)c2c1C(=O)N(c1cc(C)c3nnc(C)n3n1)C2c1ccc(Cl)cc1 (centres unmarked) [Example 111, 4-(4-chlorophenyl)-5-(3,8-dimethyl-[1,2,4]triazolo[4,3-b]pyridazin-6-yl)-1-(2-methoxypyridin-3-yl)-3-methyl-4,5-dihydropyrrolo[3,4-c]pyrazol-6(1H)-one]	17 nM	29700 nM	32 nM	24 nM	> 10 µM
CCc1c2c(nn1CCO)C(=O)N(c1cc(C)c3onc(C)c3c1)C2c1ccc(Cl)cc1 (centres unmarked) [Example 80, 4-(4-chlorophenyl)-5-(3,7-dimethylbenzo[d]isoxazol-5-yl)-3-ethyl-2-(2-hydroxyethyl)-4,5-dihydropyrrolo[3,4-c]pyrazol-6(2H)-one]	35 nM	5000 nM	59 nM	36 nM	> 10 µM
Cc1nn(C2CNC2)c2c1C(c1ccc(Cl)cc1)N(c1cc(C)c3nnc(C)n3c1)C2=O (centres unmarked) [Example 151, 1-(azetidin-3-yl)-4-(4-chlorophenyl)-5-(3,8-dimethyl-[1,2,4]triazolo[4,3-a]pyridin-6-yl)-3-methyl-4,5-dihydropyrrolo[3,4-c]pyrazol-6(1H)-one]	130 nM	> 37000 nM	150 nM	160 nM	> 10 µM
